Assays:
[1] = test system: A549 (lung); assay: Tumor cell growth (sulforhodamine B) after chemoprotectant regimen and paclitaxel; assay type: cell-based, human; details: forskolin (100 µM) plus PDE4 inhibitor (1 µM), then paclitaxel (100 nM); cell line not completely inhibited by paclitaxel
Method: (§1) The human tumor cell lines HT-29 (colon: ATCC# HTB 38), RKO (colon, ATCC# HTB 130), lines A549 (lung, ATCC# CCL 185), and MDA468 (breast, ATCC# HTB 132) were obtained from the American Type Culture Collection and maintained in DMEM containing 10% FBS. Tumor cells were grown at 37°C in a humidified atmosphere of 5% CO2. Adherent tumor cells were seeded into 96 well plates and incubated for six hours to allow for attachment. After six hours the chemoprotectants forskolin (100 µM) plus rolipram (1 µM) or forskolin (100 µM) plus Ariflo™ (1µM) were added. After overnight incubation, paclitaxel (100 nM) was added for 24 hours. Cells were then washed free of chemoprotectants and paclitaxel, placed in fresh media, and grown for 5 days. Growth was measured daily using sulforhodamine B (Skehan P. et. al., (1990), J. Nat'l Cancer Inst 82:1107-12). The results are depicted in Figure 8.

[2] = test system: HT-29 (colon); assay: as above; assay type: cell-based, human; details: forskolin (100 µM) plus PDE4 inhibitor (1 µM), then paclitaxel (100 nM) 24 hours; versus DMSO pretreatment
Method: as §1

[3] = test system: RKO (colon); assay: as above; assay type: cell-based, human; details: forskolin (100 µM) plus PDE4 inhibitor (1 µM), then paclitaxel (100 nM) 24 hours; versus DMSO pretreatment
Method: as §1

[4] = test system: expanded CD34^+ stem cells; assay: Flow cytometric (FACS) evaluation of percent live cells after chemoprotectant pretreatment and paclitaxel; assay type: cell-based, Human; details: pretreatment rolipram (1µM) plus Forskolin (100 µM) 24 hours
Method: Prevention of myelosuppression was shown by protection of neutrophil progenitors by PDE4 inhibitors from the cytotoxic effects of cancer chemotherapeutic agents. In Examples 2-7 a variety of chemically distinct PDE4 inhibitors were tested for their ability to protect neutrophil progenitors. Three methods, more completely described in the following examples, were utilized for a determination of cell survival and ability to produce daughter cells of primary human neutrophil progenitors: (1) a FACS assay which determined the percent of live cells by size and granularity; (2) a colony forming assay which measured the number of CFU-GM progenitors (a specific early stage neutrophil progenitor); and (3) a cell-based EUSA which measured CD15 antigen the value of which was proportional to the number of neutrophil lineage cells. This assay allows evaluation of neutrophil progenitors (cells that can divide and produce daughter neutrophil-lineage cells) at multiple stages of differentiation.
Human bone marrow samples were collected from presumed healthy human donors following informed consent through an agreement with Duke University Medical Center, Durham, North Carolina. Mononuclear cells were isolated using a 1.077 Ficoll-Paque gradient according to the published procedure (Dornsife, RE et al., Antimicrob Agents Chemother, 35: 322-328, (1991)) and were suspended in HBSS with 2% FBS at a concentration of 5 X 10^7 cells/ml. CD34^+ stem cells were isolated by "StemSep™ CD34^+ stem cell selection kit" by following the instructions from the manufacturer (Stem Cell Technologies). Cells were adjusted to 1 x 10^6 cells/ml in complete growth media and maintained in a humidified, 5% CO2 incubator. The complete growth media was IMDM supplemented with 20% FBS, 1% penicillin-streptomycin antibiotics, the recombinant human cytokines (Biosource)Flt-3/Flk-2 ligand (50 ng/ml), stem cell factor (50 ng/ml), interleukin-3 (40ng/ml), and G-CSF (10 ng/ml). The cells were maintained at a density of between 0.5 and 3 x 10^5 cells/ml. The CD34+ stem cells were expanded in culture over an average range of 11 to 23 days. Five groups of expanded CD34+ cells were treated with rolipram (1µM), plus Forskolin (100 µM), an adenylate cyclase activator, for 24 hours and five groups of expanded CD34+ cells were treated with DMSO for 24 hours. After 24 hours, to the 5 sets of cells that were treated with DMSO and 5 groups of cells treated with rolipram plus forskolin, paclitaxel was added to give final concentrations of 0, 30, 100, 300, and 600 nM of paclitaxel respectively and incubated for an additional 24 hours. After the 48 hours of treatment, the cells were counted, washed and re-suspended in PBS with 2% FBS. […] The prepared cells were analyzed on a BD FACSort flow cytometer. […]

[5] = Cell based assays utilized herein, PDE4 inhibitor used alone; details: without forskolin

SMILES | effect of chemoprotectant regimen on inhibition of tumour cell growth by paclitaxel [1] | effect of chemoprotectant regimen on inhibition of tumour cell growth by paclitaxel [2] | effect of chemoprotectant regimen on inhibition of tumour cell growth by paclitaxel [3] | surviving cell fractions ([4]; then paclitaxel 30nM 24 hours, DMSO pretreatment gave 45%) [%] | surviving cell fractions ([4]; then paclitaxel 100nM 24 hours, DMSO pretreatment gave 27%) [%] | surviving cell fractions ([4]; then paclitaxel 300nM 24 hours, DMSO pretreatment gave 23%) [%] | surviving cell fractions ([4]; then paclitaxel 600nM 24 hours, DMSO pretreatment gave 18%) [%] | protective effect when used alone [5]
COc1ccc([C@]2(C#N)CC[C@@H](C(=O)O)CC2)cc1OC1CCCC1 [Ariflo™, cis-4-cyano-4-[3-(cyclopentyloxy)-4-methoxyphenyl]cyclohexane-1-carboxylic acid] | no additional protection | no effect on the inhibition of tumour cell growth | no effect on the inhibition of tumour cell growth | – | – | – | – | –
COc1ccc(C2CNC(=O)C2)cc1OC1CCCC1 (centres unmarked) [Rolipram, rolipram] | no additional protection | no effect on the inhibition of tumour cell growth | no effect on the inhibition of tumour cell growth | 86 | 81 | 63 | 59 | little protective effect

— patent EP1289557B1, “CANCER TREATMENT COMPOSITION CONTAINING AN ANTI-NEOPLASTIC AGENT AND A PDE4 INHIBITOR” (GLAXO GROUP LIMITED, priority 2000, dated 2001)
